Measured values from patent US20040259783A1, “Pharmaceutical compositions of marine sponge microciona prolifera” (priority 2001, published 2004).

Experiments:
[1] = system: rat aortic smooth muscle cells, A-10; experiment: Smooth muscle cell migration in vitro assay (scrape injury); type: cell-based; settings: concentration giving 100% inhibition of smooth muscle cell motility, incubation up to 24 hrs
Method: The following in vitro assays were conducted to illustrate the effect of peptides, carbohydrates and extract (2.7K) on the smooth muscle cell migration. The cells used in the following example were rat aortic smooth muscle cells, A-10. The cells were seeded at 2.5×10^5 cells/well in 6 well plates using Dulbecco's Modified Eagle Medium (Gibco BRL Cat. # 11885-084),10% FBS and 1% Antibiotic Antimycotic (Gibco BRL Cat. # 15240). Confluency of cells after about 8 hrs was between 80˜90%. Cells were injured with the single edge cell scraper (one injury/well) then washed twice with PBS and treated with peptides B-1 (SEQ ID NO:1), B-2 (SEQ ID NO:2 ), B-3 (SEQ ID NO: 3), B-6, (SEQ ID NO: 4), B-9(SEQ ID NO:5), B-10(SEQ ID NO:6) AND B-11(SEQ ID NO: 7) at concentrations ranging from 10 μg/ml ml to 100 μg/ml. Images were taken using a X5 modulation objective (Zeiss, Germany) attached to a Zeiss Axiovert 100 inverted microscope equipped with Hoffman Modulation contrast optical filters (Greenvale, N.Y.).
The images were taken at zero time and following the incubation of smooth muscle cells with peptide, carbohydrates and extracts for a period of up to 24 hrs (FIGS. 1, 2, 3 and 4).

[2] = system: EAE mouse model; experiment: EAE mouse model (acute EAE induced with MBP and PTX); type: in vivo; settings: 5 mg/kg daily; for clinical signs of MS symptoms: improvement in mean clinical score and delay in progression to disability; for mean clinical score: day 15, scale of 0 to 5, PBS treated mice 1.7 (B-9 study), 1.5 (B-1 study)
Method: The EAE mouse model is the standard animal model used for testing therapeutic compounds in the treatment of multiple sclerosis (MS). Acute EAE was induced by immunization of 3 months old SJL/J female mice (Jackson Lab.; Bar Harbor, Me.) with the MBP (myelin basic protein) and PTX (pertussis toxin). Each animal received an s.c. injection at tail base of 200 μg MBP in 0.1 ml of CFA and received an i.v. injection of 200 ng of PTX; pertussis toxin was injected again 48 hours later. Mice (4 animals per group) were treated with the peptide B-1 (SEQ ID NO: 1) or peptide B-9 (SEQ ID NO: 5) at a dose of 5 mg/kg daily; injections starting on the day of first immunization. Treatment was stopped at time of sacrifice. Mice were monitored daily from day 7 after immunization for clinical signs of EAE and were scored on a scale of 0 to 5. A score of 0 represented the absence of signs while a score of 5 was given to moribund animals.

[3] = MAF carbohydrates and MAF 2.7 K extract

| Compound | 100% Inhibition of Cell Motility ([1]; MAFp3 peptides) | clinical signs of MS symptoms [2] | mean clinical score [2] | 100% Inhibition of Cell Motility [1, 3] |
| --- | --- | --- | --- | --- |
| VGFDPYDYEVNEADG (artificial peptide derived from Microciona prolifera) [Peptide B-2, 15 amino acid synthetic peptide, derived from MAF] | 50 to 100 µg/mL |  |  |  |
| GVSVRRYRNRVRI (listed as Microciona prolifera) [Peptide B-1] | 100 µg/mL | significant attenuation | 0.7 |  |
| NGSIGPRGLPGVRGDRGKRGK (artificial peptide derived from Microciona prolifera) [Peptide B-11] | 75˜100 μg/ml |  |  |  |
| CC(=O)N[C@H]1[C@H](O[C@@H]2[C@H](O)[C@H](C)OC(O)[C@H]2O)O[C@H](CO)[C@@H](O)[C@@H]1O (stereo partly shown) [RR-1 disaccharides, GlcNAcβ1-3Fuc] |  |  |  | 5˜10 μg/mL |
| CFLTPHGVELHK (artificial peptide derived from Microciona prolifera) [Peptide B-10, 12 amino acid synthetic peptide derived from MAF] | 100 µg/mL |  |  |  |
| RFVINITTSGSD (artificial peptide derived from Microciona prolifera) [Peptide B-9, 12 amino acid synthetic peptide derived from MAF] | 20 µg/mL | significant attenuation | 0.6 |  |
| CC(=O)NC1C(OC2C(O)C(C)OC(O)C2O)OC(CO)C(OC2OC3COC(C)(C(=O)O)OC3C(O)C2O)C1O (stereo not shown) [RR-5 trisaccharides, (4,6-Pyr)Galβ1-4GlcNAcβ1-3Fuc] |  |  |  | 25 µg/mL |
| GSGIGDEPTTS (artificial peptide derived from Microciona prolifera) [Peptide B-6, 11 amino acid synthetic peptide derived from MAF] | 50˜75 μg/ml |  |  |  |
| EDQLDAMNLS (artificial peptide derived from Microciona prolifera) [Peptide B-3, 10 amino acid synthetic peptide derived from MAF] | 50 µg/mL |  |  |  |
